Measured values from ChEMBL document CHEMBL4177737, “Identification of bicyclic hexafluoroisopropyl alcohol sulfonamides as retinoic acid receptor-related orphan receptor gamma (RORγ/RORc) inverse agonists. Employing structure-based drug design to improve pregnane X receptor (PXR) selectivity” (Bioorg Med Chem Lett, 2018).

Legend:
[1] = target: T1, Nuclear receptor subfamily 1 group I member 2 (Homo sapiens, UniProt O75469); assay: Transactivation of PXR in human HepG2 cells by receptor transactivation assay; type: ADME, cell-based
T1 sequence (O75469 whole entry): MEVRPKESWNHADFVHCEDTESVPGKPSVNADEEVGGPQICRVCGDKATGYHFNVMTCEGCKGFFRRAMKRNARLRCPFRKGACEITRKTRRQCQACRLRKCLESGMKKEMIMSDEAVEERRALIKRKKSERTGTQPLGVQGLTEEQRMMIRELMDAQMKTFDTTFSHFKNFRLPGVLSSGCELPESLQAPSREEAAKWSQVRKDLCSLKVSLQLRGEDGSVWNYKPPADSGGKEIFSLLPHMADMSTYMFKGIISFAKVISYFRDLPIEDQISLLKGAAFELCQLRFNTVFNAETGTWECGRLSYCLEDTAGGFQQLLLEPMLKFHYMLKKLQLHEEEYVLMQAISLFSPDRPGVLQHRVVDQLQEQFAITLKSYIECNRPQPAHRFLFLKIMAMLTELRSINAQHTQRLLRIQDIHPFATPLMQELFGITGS

[2] = target: T2, Oxysterols receptor LXR-beta (Homo sapiens, UniProt P55055); assay: Agonist activity at GAL4-tagged human LXRbeta assessed as receptor activation expressed in African green monkey CV1 cells by luciferase reporter gene assay; type: cell-based
T2 sequence (P55055 whole entry): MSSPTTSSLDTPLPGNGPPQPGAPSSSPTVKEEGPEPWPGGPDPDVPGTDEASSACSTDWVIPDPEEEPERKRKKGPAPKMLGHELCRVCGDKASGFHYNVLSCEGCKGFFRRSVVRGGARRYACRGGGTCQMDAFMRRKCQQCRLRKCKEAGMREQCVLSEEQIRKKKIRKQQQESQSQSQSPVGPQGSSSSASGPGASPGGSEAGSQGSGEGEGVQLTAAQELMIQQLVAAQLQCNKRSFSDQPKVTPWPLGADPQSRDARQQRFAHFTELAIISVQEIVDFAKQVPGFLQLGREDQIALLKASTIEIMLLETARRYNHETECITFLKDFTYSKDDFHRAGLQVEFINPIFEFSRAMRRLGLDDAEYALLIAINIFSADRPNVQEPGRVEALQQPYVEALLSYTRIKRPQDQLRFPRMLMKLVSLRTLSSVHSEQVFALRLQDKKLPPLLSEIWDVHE

[3] = target: T1, Nuclear receptor subfamily 1 group I member 2; assay: (§1) Transactivation of PXR in human HepG2 cells by receptor transactivation assay relative to untreated control; type: ADME, cell-based; conditions: hepg2
[4] = Stability in human liver microsomes assessed as parent compound remaining incubated for 10 mins; type: ADME, microsome; conditions: for Stability: microsomes, 10 min
[5] = target: T3, Oxysterols receptor LXR-alpha (Homo sapiens, UniProt Q13133); assay: Agonist activity at GAL4-tagged human LXRalpha assessed as receptor activation expressed in African green monkey CV1 cells by luciferase reporter gene assay; type: cell-based
T3 sequence (Q13133 whole entry): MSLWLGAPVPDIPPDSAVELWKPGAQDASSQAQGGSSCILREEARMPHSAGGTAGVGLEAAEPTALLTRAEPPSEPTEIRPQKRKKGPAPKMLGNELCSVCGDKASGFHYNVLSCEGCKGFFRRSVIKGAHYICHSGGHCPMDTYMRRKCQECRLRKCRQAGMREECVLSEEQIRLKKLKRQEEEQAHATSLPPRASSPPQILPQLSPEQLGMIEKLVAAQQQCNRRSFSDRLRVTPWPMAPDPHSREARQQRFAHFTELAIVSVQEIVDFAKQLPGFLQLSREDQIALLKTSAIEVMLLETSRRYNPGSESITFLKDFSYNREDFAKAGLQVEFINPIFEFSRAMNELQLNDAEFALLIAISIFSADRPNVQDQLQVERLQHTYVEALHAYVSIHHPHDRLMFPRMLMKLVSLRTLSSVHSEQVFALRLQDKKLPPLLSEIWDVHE

[6] = Drug level in Balb/c mouse at 30 mg/kg, po BID measured at 1 hr on day 1; type: ADME, organism-based; conditions: in vivo, read-out: Drug uptake
[7] = Drug level in Balb/c mouse at 100 mg/kg, po BID measured at 1 hr on day 1; type: ADME, organism-based; conditions: in vivo, read-out: Drug uptake
[8] = Drug level in Balb/c mouse at 100 mg/kg, po BID measured at 7.5 hrs on day 1; type: ADME, organism-based; conditions: in vivo, read-out: Drug uptake
Mus musculus [9] = assay: Inhibition of IL-2/IL-23 induced IL-17 production in C57BL/6 mouse challenged 3 times with IL-2/IL-23 (at 0, 7 and 23 hrs) after IL-2 alone priming (-24 hrs) at 50 mg/kg, po dosed 30 mins prior to each IL-2/IL-23 co-administration and measured after 7 hrs post last IL-2/IL-23 challenge; type: functional; conditions: C57BL/6, po
[10] = Drug level in Balb/c mouse at 100 mg/kg, po BID measured at 23.5 hrs on day 1; type: ADME, organism-based; conditions: in vivo, read-out: Drug uptake
PXR (NR1I2) = target: T4, PXR (NR1I2) (Homo sapiens, UniProt O75469); assay: as §1; type: ADME, cell-based; conditions: HepG2 cells, read-out: %max
T4 sequence (O75469 whole entry): T1 sequence (O75469 whole entry)

[11] = Stability in mouse liver microsomes assessed as parent compound remaining incubated for 10 mins; type: ADME, microsome
Mus musculus [12] = assay: Inhibition of IL-2/IL-23 induced IL-17 production in C57BL/6 mouse challenged 3 times with IL-2/IL-23 (at 0, 7 and 23 hrs) after IL-2 alone priming (-24 hrs) at 25 mg/kg, po dosed 30 mins prior to each IL-2/IL-23 co-administration and measured after 7 hrs post last IL-2/IL-23 challenge; type: functional; conditions: C57BL/6, po
[13] = Drug level in Balb/c mouse at 100 mg/kg, po BID measured at 1 hr on day 5; type: ADME, organism-based; conditions: in vivo, read-out: Drug uptake
[14] = Drug level in Balb/c mouse at 30 mg/kg, po BID measured at 7.5 hrs on day 5; type: ADME, organism-based; conditions: in vivo, read-out: Drug uptake
[15] = Drug level in Balb/c mouse at 30 mg/kg, po BID measured at 23.5 hrs on day 5; type: ADME, organism-based; conditions: in vivo, read-out: Drug uptake
[16] = Drug level in Balb/c mouse at 100 mg/kg, po BID measured at 7.5 hrs on day 5; type: ADME, organism-based; conditions: in vivo, read-out: Drug uptake
[17] = Drug level in Balb/c mouse at 30 mg/kg, po BID measured at 7.5 hrs on day 1; type: ADME, organism-based; conditions: in vivo, read-out: Drug uptake
[18] = Drug level in Balb/c mouse at 30 mg/kg, po BID measured at 1 hr on day 5; type: ADME, organism-based; conditions: in vivo, read-out: Drug uptake
[19] = Drug level in Balb/c mouse at 30 mg/kg, po BID measured at 23.5 hrs on day 1; type: ADME, organism-based; conditions: in vivo, read-out: Drug uptake
[20] = target: T5, Nuclear receptor ROR-alpha (Homo sapiens, UniProt P35398); assay: Agonist activity at Gal4-tagged human RORalpha ligand binding domain expressed in human Jurkat cells by native IL17 promoter driven luciferase reporter gene assay; type: cell-based
T5 sequence (P35398 whole entry): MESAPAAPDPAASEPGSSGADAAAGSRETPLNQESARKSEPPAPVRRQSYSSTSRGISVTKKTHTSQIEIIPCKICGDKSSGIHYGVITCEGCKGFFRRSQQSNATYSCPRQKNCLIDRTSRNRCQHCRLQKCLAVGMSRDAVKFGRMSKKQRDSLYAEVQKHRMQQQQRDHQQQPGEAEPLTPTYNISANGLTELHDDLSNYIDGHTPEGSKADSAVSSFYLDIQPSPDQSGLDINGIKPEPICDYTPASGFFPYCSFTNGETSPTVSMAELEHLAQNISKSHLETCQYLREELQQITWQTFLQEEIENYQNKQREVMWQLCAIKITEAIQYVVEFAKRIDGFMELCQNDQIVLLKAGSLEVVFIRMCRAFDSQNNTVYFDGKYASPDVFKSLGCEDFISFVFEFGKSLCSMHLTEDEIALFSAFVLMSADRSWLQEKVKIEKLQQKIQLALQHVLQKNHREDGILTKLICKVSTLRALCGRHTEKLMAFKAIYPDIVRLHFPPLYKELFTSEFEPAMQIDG

[21] = target: T6, Nuclear receptor ROR-beta (Homo sapiens, UniProt Q92753); assay: Inverse agonist activity at Gal4-tagged human RORbeta ligand binding domain expressed in human Jurkat cells by native IL17 promoter driven luciferase reporter gene assay; type: cell-based
T6 sequence (Q92753 whole entry): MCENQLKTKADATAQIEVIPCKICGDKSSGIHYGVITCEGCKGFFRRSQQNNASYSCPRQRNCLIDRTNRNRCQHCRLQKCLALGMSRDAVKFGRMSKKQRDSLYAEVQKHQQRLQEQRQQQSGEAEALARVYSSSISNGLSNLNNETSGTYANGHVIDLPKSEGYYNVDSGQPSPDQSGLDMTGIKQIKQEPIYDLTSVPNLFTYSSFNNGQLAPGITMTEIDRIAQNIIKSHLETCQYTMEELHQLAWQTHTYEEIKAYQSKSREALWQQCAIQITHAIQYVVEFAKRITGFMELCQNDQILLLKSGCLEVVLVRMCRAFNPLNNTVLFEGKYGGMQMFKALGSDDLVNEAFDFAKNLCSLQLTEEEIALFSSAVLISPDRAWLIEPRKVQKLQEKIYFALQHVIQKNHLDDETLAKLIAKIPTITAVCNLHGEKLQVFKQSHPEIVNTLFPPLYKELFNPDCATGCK

[22] = target: T7, Nuclear receptor ROR-gamma (Homo sapiens, UniProt P51449); assay: Agonist activity at Gal4-tagged human RORgammat ligand binding domain expressed in human Jurkat cells by native IL17 promoter driven luciferase reporter gene assay; type: cell-based
T7 sequence (P51449 whole entry): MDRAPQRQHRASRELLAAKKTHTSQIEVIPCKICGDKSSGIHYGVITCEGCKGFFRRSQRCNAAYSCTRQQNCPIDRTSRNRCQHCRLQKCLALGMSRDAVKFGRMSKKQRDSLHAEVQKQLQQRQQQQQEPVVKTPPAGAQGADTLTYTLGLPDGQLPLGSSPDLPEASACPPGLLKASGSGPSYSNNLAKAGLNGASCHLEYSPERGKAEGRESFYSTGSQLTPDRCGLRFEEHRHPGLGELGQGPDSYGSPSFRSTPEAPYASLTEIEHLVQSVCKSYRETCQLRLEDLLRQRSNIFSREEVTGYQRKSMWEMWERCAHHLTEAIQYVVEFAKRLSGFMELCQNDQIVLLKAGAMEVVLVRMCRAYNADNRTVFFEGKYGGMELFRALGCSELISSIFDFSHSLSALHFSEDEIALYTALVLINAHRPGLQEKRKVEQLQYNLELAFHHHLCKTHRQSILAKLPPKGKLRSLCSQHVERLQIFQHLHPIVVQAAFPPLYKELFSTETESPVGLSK

[23] = target: T6, Nuclear receptor ROR-beta; assay: Agonist activity at Gal4-tagged human RORbeta ligand binding domain expressed in human Jurkat cells by native IL17 promoter driven luciferase reporter gene assay; type: cell-based
[24] = target: T5, Nuclear receptor ROR-alpha; assay: Inverse agonist activity at Gal4-tagged human RORalpha ligand binding domain expressed in human Jurkat cells by native IL17 promoter driven luciferase reporter gene assay; type: cell-based
[25] = target: T7, Nuclear receptor ROR-gamma; assay: Inverse agonist activity at Gal4-tagged human RORgammat ligand binding domain expressed in human Jurkat cells by native IL17 promoter driven luciferase reporter gene assay; type: cell-based
[26] = liver microsomes, read-out: Stability

SMILES: CC(C)(O)CNC(=O)CC1CSc2cc(C(O)(C(F)(F)F)C(F)(F)F)ccc2N1S(=O)(=O)c1ccc(F)cc1 (stereo in doubt; 30)
- EC50 [1]: 1.1 µM
- EC50 [2]: > 7.5 µM
- %max [3]: 90%
- Stability [4]: 5%
- EC50 [5]: > 7.5 µM

SMILES: CC(C)(O)[C@H](F)CNC(=O)C[C@@H]1CCc2cc(C(O)(C(F)(F)F)C(F)(F)F)ccc2N1S(=O)(=O)c1ccc(F)cc1
- concentration at 1 h [6]: 3490 nM
- concentration at 1 h [7]: 13900 nM
- EC50 [1]: 2 µM
- concentration at 7.5 h [8]: 2460 nM
- inhibition in vivo at 50 mg/kg (Mus musculus [9]): 98%
- concentration at 23.5 h [10]: 19 nM
- EC50 [2]: > 7.5 µM
- Emax (PXR (NR1I2)): 100%
- remaining at 10 min [11, 26]: 62%
- inhibition in vivo at 25 mg/kg (Mus musculus [12]): 74%
- remaining at 10 min [4, 26]: 56%
- EC50 [5]: > 7.5 µM
- concentration at 1 h [13]: 2830 nM
- concentration at 7.5 h [14]: 21 nM
- concentration at 23.5 h [15]: 5 nM
- concentration at 7.5 h [16]: 61 nM
- concentration at 7.5 h [17]: 134 nM
- concentration at 1 h [18]: 555 nM
- concentration at 23.5 h [19]: 5 nM

SMILES: O=S(=O)(c1ccc(F)cc1)N1CCSc2cc(C(O)(C(F)(F)F)C(F)(F)F)ccc21
- EC50 [20]: > 4 µM
- EC50 [1]: 0.02 µM
- EC50 [21]: > 2 µM
- EC50 [2]: 0.185 µM
- EC50 [22]: > 4 µM
- Emax (PXR (NR1I2)): 100%
- EC50 [23]: > 4 µM
- EC50 [24]: > 2 µM
- EC50 [5]: 0.19 µM
- EC50 [25]: 0.165 µM

SMILES: CC(C)(O)CNC(=O)CC1CSc2cc(C(O)(C(F)(F)F)C(F)(F)F)ccc2N1S(=O)(=O)c1ccc(F)cc1 (stereo in doubt; 31)
- EC50 [1]: 1.35 µM
- EC50 [2]: 3.71 µM
- %max [3]: 70%
- Stability ([11]; microsomes, 10 min): 1%
- Stability [4]: 2%
- EC50 [5]: 0.315 µM
